From patent publication US5519028A, “Antiviral preparations” (priority 1992, dated 1996)

Assays:
HIV-1 BRE1 (HIV-1Asym.) = assay: HIV P24 production in PBMC, viral inoculum pretreated, isolate BRE1; type: cell-based; conditions: virus pretreated with 30 or 60 μg/ml
Description: (§1) To test the efficacy of flavopereirine on the infectious capability of HIV-1, two experiments were conducted. […] After 2 hours of incubation, the cells were rinsed twice and cultivated in 1 ml of RPMI 1640 containing 20 IU of IL-2 per ml (Boehringer […], Germany), 2 μg of Polybrene (hexadimethrine bromide) per ml (Sigma, St. Louis, Mo., USA) and 10^-7 IU of goat antiserum acting against human alpha interferon (Janssen, Beerse, Belgium) per ml. Half the culture was changed after 72 hours, and thereafter every 48 hours until the 30th day. […] The surface material of the culture was tested by an immuno-enzymatic (ELISA) assay for the production of antigen P24 (Abbott, Chicago, Ill., USA) and the optical density (OD) of the resulting color was converted into P24 concentration from the slope of a standard nomogram, as described by W. Lu and J. -M. Andrieu, Journal of Virology, 66(1): 334-340 (1992).

HIV-1 TIG2 (HIV-1AIDS) = assay: HIV P24 production in PBMC, viral inoculum pretreated, isolate TIG2; type: cell-based; conditions: virus pretreated with 30 or 60 μg/ml
Description: as §1

IL-1β = IL-1β production by monocytes of normal donors; type: cell-based, human
Description: The effects of flavopereirine on the production of primary (IL-1β and TNF-α) and secondary (IL-6) cytokines by monocytes was also tested. The adhesive monocytes used were taken from the blood of two types of donors:
Normal donors--voluntary blood donors who attended the blood bank of the Pitie-Salpetriere Hospital, Paris, France; and
Product H was not used in these experiments at a rate of more than 20 μg/ml water, since above this rate, net toxicity could have been produced.

CCc1ccc2c3[nH]c4ccccc4c3cc[n+]2c1 [flavopereirine]
infection of target PBMC (HIV-1 BRE1 (HIV-1Asym.)): completely prevented the infection of target PBMC
infection of target PBMC (HIV-1 TIG2 (HIV-1AIDS)): completely prevented the infection of target PBMC
direct activity on production of IL-1β (IL-1β; donor #10, 10 and 20 μg/ml): responded very well
direct activity on production of IL-1β (IL-1β; donors #3, 5 and 6, dose effect, marginal): Increase in the production of IL-1β
indirect activity on production of IL-1β (IL-1β; response to LPS or IFN-γ+LPS, p<0.05): no significant modification
